The record followed here is US9078444B2, “Isothiazoline derivatives as insecticidal compounds” (Syngenta Participations AG, priority 2011, dated 2015).

What all share (format): in vivo
One experiment has as its system Plutella xylostella. Put plainly: Plutella xylostella (diamond back moth) artificial diet test. The following applies: 144 h, 200 ppm (concentration in well 18 ppm), L2 larvae, larval mortality and growth regulation after 6 days. Here is the method: Plutella xylostella (Diamond Back Moth): 24-well microtiter plate (MTP) with artificial diet was treated with test solutions at an application rate of 200 ppm (concentration in well 18 ppm) by pipetting. After drying, the MTPs were infested with L2 larvae (7-12 per well). After an incubation period of 6 days, samples were checked for larval mortality and growth regulation.

A further experiment has as its system Tetranychus urticae. Kind of experiment: Tetranychus urticae (two-spotted spider mite) bean leaf disc test. The following applies: foliar, 192 h, 200 ppm sprayed on bean leaf discs, mixed ages, egg, larval and adult mortality 8 days later. The source says: Tetranychus urticae (Two-Spotted Spider Mite): Bean leaf discs on agar in 24-well microtiter plates were sprayed with test solutions at an application rate of 200 ppm. After drying, the leaf discs are infested with mite populations of mixed ages. 8 days later, discs are checked for egg mortality, larval mortality, and adult mortality.

Experiment [1] relates to Spodoptera littoralis. Kind of experiment: Spodoptera littoralis persistence test on sprayed cotton plants (increased safety profile / bio-degradability). The conditions noted are these: for pest or weed control at 12.5 ppm: Spodoptera littoralis; for Control after 10 days/%: leaves excised 10 days after treatment. The method, then: Biological Examples Showing Increased Safety Profile:
Spodoptera littoralis (Egyptian Cotton Leafworm)
Cotton plants in the 5th leaf stage (around 5 weeks old) are treated in an automated turn table spray chamber. Plants are stored in the greenhouse length during the whole test period.
2, 16 and optionally 10 days after treatment 4 leaves from each sample are excised, placed into 14 cm plastic petri dishes on wet filter paper. The infestation of 10 L3-Spodoptera littoralis is made immediately afterwards. After an incubation period of 6 days the samples are checked for mortality.
In the following series of experiments the compounds of the invention are compared with the corresponding isoxazoline analogues from the prior art on Spodoptera littoralis (Egyptian cotton leafworm) performed as described in the method above.

In the next experiment the test system is Thrips tabaci. Kind of experiment: Thrips tabaci (onion thrips) sunflower leaf disc test. The conditions noted are these: foliar, 168 h, 200 ppm sprayed on sunflower leaf discs, mixed ages, mortality after 7 days. The method, then: Thrips tabaci (Onion Thrips): Sunflower leaf discs were placed on agar in a 24-well microtiter plate and sprayed with test solutions at an application rate of 200 ppm. After drying, the leaf discs were infested with a thrips population of mixed ages. After an incubation period of 7 days, samples were checked for mortality.

A further experiment concerns Diabrotica balteata. Kind of experiment: Diabrotica balteata (corn root worm) artificial diet test. The conditions noted are these: 120 h, 200 ppm (concentration in well 18 ppm), L2 larvae, larval mortality and growth regulation after 5 days. The method, then: Diabrotica balteata (Corn Root Worm): A 24-well microtiter plate (MTP) with artificial diet was treated with test solutions at an application rate of 200 ppm (concentration in well 18 ppm) by pipetting. After drying, the MTPs were infested with L2 larvae (6-10 per well). After an incubation period of 5 days, samples were checked for larval mortality and growth regulation.

Experiment [2] has as its system Spodoptera littoralis. Kind of experiment: Spodoptera littoralis (Egyptian cotton leafworm) cotton leaf disc test. The conditions noted are these: foliar, 72 h, 200 ppm sprayed on cotton leaf discs, mortality, feeding behavior, growth regulation 3 days after treatment. The method, then: Spodoptera littoralis (Egyptian Cotton Leafworm): Cotton leaf discs were placed on agar in a 24-well microtiter plate and sprayed with test solutions at an application rate of 200 ppm. After drying, the leaf discs were infested with […]. The samples were checked for mortality, feeding behavior, and growth regulation 3 days after treatment (DAT).

Another experiment relates to Heliothis virescens. Put plainly: Heliothis virescens (tobacco budworm) egg test on artificial diet. The conditions noted are these: 96 h, 200 ppm (concentration in well 18 ppm), eggs on artificial diet, egg mortality, larval mortality, growth regulation after 4 days. The method, then:
Heliothis virescens (Tobacco Budworm): Eggs (0-24 h old) were placed in 24-well microtiter plate on artificial diet and treated with test solutions at an application rate of 200 ppm (concentration in well 18 ppm) by pipetting. After an incubation period of 4 days, samples were checked for egg mortality, larval mortality, and growth regulation.

[3] abbreviates: 48 h, 12.5 ppm on cotton plants, leaves excised 2 days after treatment, 10 L3 larvae, mortality after 6 days incubation, read-out: Control after 2 days/%.
Setting [4] is: 384 h, 12.5 ppm on cotton plants, leaves excised 16 days after treatment, 10 L3 larvae, mortality after 6 days incubation, read-out: Control after 16 days/%.
The mark [5] stands for this setting: 12.5 ppm on cotton plants, 10 L3 larvae, mortality after 6 days incubation.

Read-outs that look alike come from different tables or passages of the source.

Take `Cc1cc(C2=NSC(c3cc(Cl)cc(Cl)c3)(C(F)(F)F)C2)ccc1C(=O)NC(C)c1ccccc1` (stereo not drawn) [Compound A12]: the pest or weed control at 200 ppm in the experiment on Plutella xylostella, with Tetranychus urticae, in the experiment on Thrips tabaci, with Diabrotica balteata, in the experiment with Spodoptera littoralis [2] and in the experiment with Heliothis virescens was not below 80% each time. Further, the pest or weed control at 12.5 ppm in the experiment on Spodoptera littoralis [1] (setting [3]) came out at 30%.
`Cc1cc(C2=NSC(c3cc(Cl)cc(Cl)c3)(C(F)(F)F)C2)ccc1C(=O)NC1(C#N)CC1` (stereo not drawn) [Compound A45]: the pest or weed control at 200 ppm with Plutella xylostella, in the experiment with Tetranychus urticae, in the experiment with Thrips tabaci, in the experiment on Diabrotica balteata, with Spodoptera littoralis [2] and in the experiment with Heliothis virescens was not below 80% each time. Further, the pest or weed control at 12.5 ppm stood at 75% in the experiment with Spodoptera littoralis [1] (setting [3]) and 0% with Spodoptera littoralis [1] (setting [4]).
`CO/N=C/NC(=O)c1ccc(C2=NSC(c3cc(Cl)cc(Cl)c3)(C(F)(F)F)C2)cc1Cl` (stereo not drawn) [Compound C3, 2-chloro-4-[5-(3,5-dichlorophenyl)-5-(trifluoromethyl)-4H-isothiazol-3-yl]-N-[(E)-methoxyiminomethyl]benzamide]: the pest or weed control at 200 ppm with Plutella xylostella, with Tetranychus urticae, with Thrips tabaci, in the experiment on Diabrotica balteata, in the experiment with Spodoptera littoralis [2] and in the experiment on Heliothis virescens was not below 80% in each case. The pest or weed control at 12.5 ppm in the experiment with Spodoptera littoralis [1] (setting [3]) turned out to be 100%; in the experiment with Spodoptera littoralis [1] (setting [4]), 0%.
Regarding `CO/N=C/NC(=O)c1ccc(C2=NSC(c3cc(Cl)cc(Cl)c3)(C(F)(F)F)C2)cc1C` (stereo not drawn) [Compound C1, 4-[5-(3,5-dichlorophenyl)-5-(trifluoromethyl)-4H-isothiazol-3-yl]-N-[(E)-methoxyiminomethyl]-2-methyl-benzamide], the pest or weed control at 200 ppm in the experiment with Plutella xylostella, in the experiment on Tetranychus urticae, in the experiment on Thrips tabaci, with Diabrotica balteata, with Spodoptera littoralis [2] and with Heliothis virescens was not below 80% each time. The pest or weed control at 12.5 ppm with Spodoptera littoralis [1] (setting [3]) turned out to be 100%; in the experiment on Spodoptera littoralis [1] (setting [4]) it was 5%.
Regarding `Cc1cc(C2=NSC(c3cc(Cl)cc(Cl)c3)(C(F)(F)F)C2)ccc1C(=O)Nc1ccc(F)cc1` (stereo not drawn) [Compound A59], the pest or weed control at 200 ppm in the experiment with Plutella xylostella, in the experiment on Tetranychus urticae, in the experiment on Thrips tabaci, with Diabrotica balteata, in the experiment with Spodoptera littoralis [2] and in the experiment with Heliothis virescens was not below 80% in each case. The pest or weed control at 12.5 ppm was found to be 100% in the experiment with Spodoptera littoralis [1] (setting [3]) and 10% in the experiment with Spodoptera littoralis [1] (setting [4]).
`Cc1cc(C2=NSC(c3cc(Cl)cc(Cl)c3)(C(F)(F)F)C2)ccc1C(=O)NC1CS(=O)(=O)C1` (stereo not drawn) [Compound A02, 4-[5-(3,5-dichlorophenyl)-5-(trifluoromethyl)-4H-isothiazol-3-yl]-N-(1,1-dioxothietan-3-yl)-2-methyl-benzamide]: the pest or weed control at 200 ppm in the experiment on Plutella xylostella, in the experiment on Tetranychus urticae, in the experiment on Thrips tabaci, in the experiment on Diabrotica balteata, with Spodoptera littoralis [2] and with Heliothis virescens was not below 80% throughout. Further, in the experiment with Spodoptera littoralis [1] (setting [5]), the “Control after 10 days/%” value came out at 35%. In addition, the pest or weed control at 12.5 ppm with Spodoptera littoralis [1] (48 h, read-out: Control after 2 days/%) is 100%; in the experiment with Spodoptera littoralis [1] (384 h, read-out: Control after 16 days/%) it was 5%.
As for `Cc1cc(C2=NSC(c3cc(Cl)cc(Cl)c3)(C(F)(F)F)C2)ccc1C(=O)NCc1ccccn1` (stereo not drawn) [Compound A16], the pest or weed control at 200 ppm in the experiment on Plutella xylostella, with Tetranychus urticae, in the experiment on Thrips tabaci, with Diabrotica balteata, with Spodoptera littoralis [2] and in the experiment on Heliothis virescens was not below 80% throughout. For the same compound, the “Control after 10 days/%” value with Spodoptera littoralis [1] (setting [5]) was found to be 25%. The values for the pest or weed control at 12.5 ppm in the experiment on Spodoptera littoralis [1] (setting [3]) and in the experiment on Spodoptera littoralis [1] (setting [4]) were 100% and 10%, respectively.
As to `Cc1cc(C2=NSC(c3cc(Cl)cc(Cl)c3)(C(F)(F)F)C2)ccc1C(=O)NCC(=O)NCC(F)(F)F` (stereo not drawn) [Compound A01, 4-[5-(3,5-dichlorophenyl)-5-(trifluoromethyl)-4H-isothiazol-3-yl]-2-methyl-N-[2-oxo-2-(2,2,2-trifluoroethylamino)ethyl]benzamide], the pest or weed control at 200 ppm in the experiment on Plutella xylostella, in the experiment with Tetranychus urticae, in the experiment with Thrips tabaci, in the experiment on Diabrotica balteata, in the experiment on Spodoptera littoralis [2] and with Heliothis virescens was not below 80% each time. For the same compound, in the experiment with Spodoptera littoralis [1] (setting [5]), the “Control after 10 days/%” value came to 60%. For the same compound, the pest or weed control at 12.5 ppm in the experiment with Spodoptera littoralis [1] (setting [3]) amounted to 100%; in the experiment with Spodoptera littoralis [1] (setting [4]), 10%.
As to `Cc1cc(C2=NSC(c3cc(Cl)c(Cl)c(Cl)c3)(C(F)(F)F)C2)ccc1C(=O)NCC(=O)NCC(F)(F)F` (stereo not drawn) [Compound D1, 2-methyl-N-[2-oxo-2-(2,2,2-trifluoroethylamino)ethyl]-4-[5-(3,4,5-trichlorophenyl)-5-(trifluoromethyl)-4H-isothiazol-3-yl]benzamide], the pest or weed control at 200 ppm in the experiment on Plutella xylostella, with Tetranychus urticae, in the experiment on Thrips tabaci, in the experiment with Diabrotica balteata, with Spodoptera littoralis [2] and in the experiment on Heliothis virescens was not below 80% each time. For the same compound, the pest or weed control at 12.5 ppm with Spodoptera littoralis [1] (setting [3]) is 100%; with Spodoptera littoralis [1] (setting [4]), 10%.
On to `Cc1cc(C2=NSC(c3cc(Cl)cc(Cl)c3)(C(F)(F)F)C2)ccc1C(=O)NCC1CC1` (stereo not drawn) [Compound A53], for which the pest or weed control at 200 ppm in the experiment with Plutella xylostella, in the experiment with Tetranychus urticae, with Thrips tabaci, in the experiment on Diabrotica balteata, in the experiment with Spodoptera littoralis [2] and in the experiment with Heliothis virescens was not below 80% each time. In addition, the figures for the pest or weed control at 12.5 ppm in the experiment with Spodoptera littoralis [1] (setting [3]) and in the experiment with Spodoptera littoralis [1] (setting [4]) were 85% and 0%, respectively.
Regarding `Cc1cc(C2=NSC(c3cc(Cl)cc(Cl)c3)(C(F)(F)F)C2)ccc1C(=O)NCC(C)C` (stereo not drawn) [Compound A46], the pest or weed control at 200 ppm in the experiment with Plutella xylostella, in the experiment with Tetranychus urticae, in the experiment on Thrips tabaci, in the experiment with Diabrotica balteata, in the experiment on Spodoptera littoralis [2] and in the experiment with Heliothis virescens was not below 80% throughout. For the same compound, the figures for the pest or weed control at 12.5 ppm with Spodoptera littoralis [1] (setting [3]) and in the experiment on Spodoptera littoralis [1] (setting [4]) were 40% and 0%, respectively.
With `Cc1cc(C2=NOC(c3cc(Cl)cc(Cl)c3)(C(F)(F)F)C2)ccc1C(=O)NCc1ccccn1` (stereo not drawn) [Compound 1-061 from EP1731512, reference compound], the “Control after 10 days/%” value with Spodoptera littoralis [1] (setting [5]) came to 100%. In addition, the pest or weed control at 12.5 ppm with Spodoptera littoralis [1] (setting [3]) and in the experiment with Spodoptera littoralis [1] (setting [4]) was 100% each time.
